From paper PMC4192315, “An Efficient Preparation of Mulberroside A from the Branch Bark of Mulberry and Its Effect on the Inhibition of Tyrosinase Activity” (PLoS ONE, 2014)
“Also recorded” adds a separate entry of the source. Like-named read-outs stand apart in the source and are kept apart here.

Columns and labels:
[1] = biological target: monophenolase activity of the mushroom tyrosinase (Agaricus bisporus, UniProt C7FF04); test: Inhibition of monophenolase activity of mushroom tyrosinase (L-tyrosine as substrate, absorbance at 475 nm); format: biochemical; conditions: for Inhibition type: Lineweaver-Burk plots; for Inhibition mechanism: plot of V against [E]
Chain of monophenolase activity of the mushroom tyrosinase (C7FF04 1-392): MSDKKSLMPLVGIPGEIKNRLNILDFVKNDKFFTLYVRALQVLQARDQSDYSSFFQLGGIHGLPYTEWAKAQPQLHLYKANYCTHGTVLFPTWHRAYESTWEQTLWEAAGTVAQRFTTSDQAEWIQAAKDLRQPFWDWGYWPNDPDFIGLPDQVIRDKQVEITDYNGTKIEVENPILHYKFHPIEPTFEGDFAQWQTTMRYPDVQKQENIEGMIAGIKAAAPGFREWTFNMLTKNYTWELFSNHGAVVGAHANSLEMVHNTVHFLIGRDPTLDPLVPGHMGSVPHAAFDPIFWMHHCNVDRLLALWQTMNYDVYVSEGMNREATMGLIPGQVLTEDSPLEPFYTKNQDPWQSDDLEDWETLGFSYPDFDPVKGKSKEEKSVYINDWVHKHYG
Experimental: The measurement of the sample's inhibitory activity on monophenolase activity was based on 0.5 mmol/L L-tyrosine as the substrate. The total reaction volume was 3.0 mL, which included 2.8 mL substrate solution, 100 µL different concentrations of the sample solutions and 100 µL mushroom tyrosinase solution. The substrate and enzyme solution were dissolved in 50 mmol/L NaH2PO4-Na2HPO4 temporary buffer solution (pH 6.8), with a substrate concentration of 0.5 mmol/L and with an enzyme solution concentration of 1.0 mg/mL. The samples were dissolved in DMSO. First, 100 µL sample solution was added, then 2.8 mL substrate solution, which was pre-incubated at 30°C, was added, and last, 100 µL enzyme solution was added and immediately mixed. The curve was drawn using real-time tracking of the optical density change over time at 475 nm. The measuring instrument was a Hitachi U3000 UV-visible spectrophotometer. The enzyme activity was obtained from the slope of the line. The sample concentration-response curve was plotted as the inhibition rate of samples to the enzyme against the concentrations of effectors.
(§1) The concentration of the substrate was fixed in 3.0 mL of 50 mmol/L NaH2PO4-Na2HPO4 temporary buffer solution (pH 6.8); however, the amount of enzyme was changed to determine the effects of different concentrations of sample on the reaction of mushroom tyrosinase catalysing L-tyrosine or L-DOPA as substrates. Mapping the reaction rate in terms of the amount of enzyme determined whether the inhibition was a reversible reaction.
(§2) And the inhibition type and inhibition constant were determined as follows. The concentration of the enzyme solution was fixed in 3.0 mL of 50 mmol/L NaH2PO4-Na2HPO4 temporary buffer solution (pH 6.8); however, the amount of substrate (L-tyrosine or L-DOPA) was changed to determine the effects of different concentrations of effectors on the reaction of mushroom tyrosinase catalysing the substrate. Using the Lineweaver-Burk method, the curve was plotted as the reciprocal of the reaction rate 1/V against the reciprocal of the substrate 1/[S] to determine the type of inhibition. If the lines intersected on the y-axis, then competitive inhibition was indicated. If the lines intersected on the x-axis, then noncompetitive inhibition was indicated. If the lines intersected in the […] quadrant, then this inhibition was mixed type 1 or 2. If the lines were parallel, then anticompetitive inhibition was indicated. The inhibition constant of the effectors on tyrosinase (KI) and the inhibition constants of the enzyme-substrate complex (KIS) were obtained by a secondary plot of the concentration of the effectors against the slope of the line and the y-axis intercept, respectively.

[2] = biological target: diphenolase activity of the mushroom tyrosinase (Agaricus bisporus, UniProt C7FF04); test: Inhibition of diphenolase activity of mushroom tyrosinase (L-DOPA as substrate, absorbance at 475 nm); format: biochemical; conditions: for Inhibition type: Lineweaver-Burk plots; for Inhibition mechanism: plot of V against [E]
Chain of diphenolase activity of the mushroom tyrosinase (C7FF04 1-392): as above
Experimental: The measurement of the sample's inhibitory activity on diphenolase activity was based on 0.5 mmol/L L-DOPA as the substrate. The experimental procedure and calculations were identical to those above-mentioned procedures and calculations.
as §1, §2

[3] = system: mushroom tyrosinase; test: Effect on the total process of dopachrome synthesis (consecutive UV-Vis spectra, oxidation of L-tyrosine by tyrosinase); format: biochemical; conditions: 2.0 µmol/L sample, 0-12 min
Experimental: The effect of tyrosinase (Worthington, USA) on the catalysis of L-tyrosine to dopachrome was determined using the method described by Hiroki, with slight modifications. The total reaction volume was 3 mL. […] The change in the absorption spectrum was determined using a Hitachi U3000 UV-visible spectrophotometer at 30°C isothermal conditions. The scanning wavelength ranged from 250 nm to 600 nm. The scanning frequency was 2 min, and the scanning time was 12 min. Thus, the changes in the absorption spectrum over time were obtained.

[4] = system: mushroom tyrosinase; test: Effect on the enzyme-catalysed process (N-acetyl-L-tyrosine as substrate, HPLC); format: biochemical; conditions: 175.9 µmol/L sample, 0-60 min
Experimental: The effect of the enzyme-catalysed process was determined using a previously described method, with slight modifications. In total, 100 mg N-acetyl-L-tyrosine was dissolved using NaH2PO4-Na2HPO4 temporary buffer solution (pH 6.8), and the volume was set to 100 mL. In total, 0.25 mg/mL enzyme solution and a certain concentration of the sample solution were prepared. All the solutions were filtered using a syringe filter with an aperture of 0.22 µm. The components of the reaction system were as follows: 80 µL N-acetyl-L-tyrosine was mixed with 10 µL sample solution and incubated at 30°C for 5 min, and then 10 µL enzyme solution was added. During the period from 0–60 min, 20 µL mixed solution was injected into the HPLC system every 10 min to detect changes in N-acetyl-L-tyrosine. The HPLC conditions were as follows: a Shimadzu HPLC pump equipped with a Shimadzu 9082652 VP-ODS column (250 mm×4.6 mm). The detection wavelength was 275 nm. The injection volume was 10 µL, and the flow-rate was 1.0 mL/min. The mobile phases were A (water) and B (acetonitrile), which were prepared according to the following linear procedure: 0–8 min, A/B = 85:15 (v/v). All analyses were performed at room temperature.

[5] = Effect on the non-enzyme-catalysed process (redox reaction of L-DOPA and p-benzoquinone, HPLC); conditions: HPLC at 245 nm and 280 nm
Experimental: The effect of the non-enzyme-catalysed process was determined by a previously described method, with slight modifications. The HPLC conditions were as follows: a Shimadzu HPLC pump equipped with a Shimadzu VP-ODS column (250 mm×4.6 mm). The detection wavelengths were 245 nm and 280 nm. The injection volume was 20 µL, and the flow-rate was 1.0 mL/min. The mobile phases were A (0.4% aqueous acetic acid) and B (acetonitrile), which were prepared according to the following linear procedure: 0–10 min, A/B = 90:10 (v/v).

[6] = biological target: tyrosinase; set-up: method as in PMID 22878208; conditions: read-out: IC50 of tyrosinase inhibitory activity; cited from earlier work
[7] = system: mushroom tyrosinase; conditions: cited from earlier work
[8] = cited from earlier work
[9] = set-up: method as in PMID 8951165; conditions: rats, cited from earlier work
[10] = system: intestinal bacteria; conditions: cited from earlier work
[11] = system: mushroom tyrosinase; test: Mushroom tyrosinase inhibition (literature values); format: biochemical; conditions: monophenolase
[12] = MA isolated from ethanol extract of roots of Morus alba, read-out: Tyrosinase inhibitory activity

SMILES: OC[C@H]1O[C@@H](Oc2cc(O)cc(/C=C/c3ccc(O[C@@H]4O[C@H](CO)[C@@H](O)[C@H](O)[C@H]4O)cc3O)c2)[C@H](O)[C@@H](O)[C@@H]1O [MA, oxyresveratrol-4-O-β-D-glucopyranosyl-3′-O-β-D-glucopyranoside]
- Inhibition type [1]: mixed type 1
- KIS (inhibition constant of the enzyme-substrate complex) [1]: 0.177 µmol/L
- Inhibition mechanism [1]: reversible
- Inhibition type [2]: competitive
- Inhibition mechanism [2]: reversible
- Effect on formation of dopachrome [3]: inhibited the formation of dopachrome
- Change in content of N-acetyl-L-tyrosine [4]: did not change
- Effect on redox reaction of L-DOPA and p-benzoquinone (non-enzymatic process) [5]: not influenced; also recorded: no effect
- IC50 [6]: 42.1 µM
- Inhibition type ([7]; L-tyrosine and L-DOPA as substrates): competitive
- IC50 [7, 12]: 53.6 µM
- Permeability [8]: poor permeability
- Bioavailability ([9]; oral administration of mulberry root acetone extract): approximately 1%
- Absorption rate ([9]; oral, most MA transformed to OR and transferred into circulating blood, estimated): 50%
- Metabolism by intestinal bacteria [10]: rapidly deglucosylated and transformed into OR

SMILES: Oc1cc(O)cc(/C=C/c2ccc(O)cc2O)c1 [OR, oxyresveratrol]
- Inhibition type [1]: mixed type 1
- KIS (inhibition constant of the enzyme-substrate complex) [1]: 0.662 µmol/L
- Inhibition mechanism [1]: reversible
- Inhibition type [2]: Non-competitive
- KIS (inhibition constant of the enzyme-substrate complex) ([2]; enzyme-substrate complex): 2.95 µmol/L
- Inhibition mechanism [2]: reversible
- Effect on formation of dopachrome [3]: inhibited the formation of dopachrome
- Change in content of N-acetyl-L-tyrosine [4]: did not change
- Effect on redox reaction of L-DOPA and p-benzoquinone (non-enzymatic process) [5]: not influenced
- Difference in IC50 between literature and this paper ([11]; compared with ref 8): 8 fold
- Difference in IC50 between literature and this paper ([11]; printed as lower than our experiment, compared with ref 6): approximately 4 fold
- Inhibition mechanism ([7]; L-tyrosine as the substrate): reversibly inhibited
- Inhibition type ([7]; L-tyrosine as the substrate): non-competitive
- IC50 [7, 12]: 0.49 µM
- IC50 ([7]; depending on the assay conditions, read-out: IC50): 0.46 to 1.1 µM
